Assay type in all cases: physicochemical
Data set [1] can be described thus: Example 3: exposure of β-ionone on filter paper in ozone-free glovebox, GC-MS of headspace and extract. The settings on record: ozone below detection limit, 1 hour exposure. As for the experimental part:
A 0.3% solution of β-ionone in ethanol and a 0.3% solution of β-cyclocitral were prepared. 1 ml of the β-ionone was placed on a piece of filter paper (cellulose, 75 mm dia.) and left for 2 minutes for the ethanol to evaporate. The filter paper was then placed in a glovebox containing an ozone "scrubber" and an ozone monitor (Aeroqual series 200 fitted with a 0 to 0.5 ppm sensor). Throughout the experiment the ozone level inside the glovebox was below the detection limit of the monitor. The ozone scrubber comprised an air pump (Interpet AirVolution AV4), pumping air at a rate of 600 l/hr through 0.75 g/l sodium thiosulphate solution.
After 1 hour exposure the filter paper was sealed in a 500 ml glass jar that had been adapted such that a SPME fibre could be introduced via a septum in the lid. The headspace above the sample was analysed using a Carboxen/DVB/PDMS SPME fibre using a 30 minute exposure. The fibre was then analysed by GC-MS. The filter paper was then removed, placed in a 28 ml glass vial and 3 ml of ethanol added. The vial was rollered for two hours after which the free ethanol was removed and analysed by GC-MS. The β-cyclocitral in ethanol solution was also analysed to indicate the appropriate retention time. […]

Data set [2] in a line: Experiment A: ozone chamber exposure of β-ionone on a surface, headspace SPME-GCMS. The settings on record: 1 hour exposure. As for the experimental part: A β-ionone solution (10 % w/w in ethanol) was applied to a surface (20 microlitres) and was allowed to dry for one hour in a fume cupboard. The surface was then placed at the base of the ozone chamber. The ozone generator plug-in was turned on for the required time at regular intervals to achieve the desired ozone concentration inside the chamber (either 250 ppb or 350 ppb). After exposure of a surface to ozone for the desired time of 1 hour the surface was removed from the chamber and placed in a capped PVC container. The surface was left in the PVC container for 10 min and then an additional 20 min with an SPME fibre exposed to the head-space environment of the container. The headspace was measured by SPME-GCMS and the ratios of β-cyclocitral to β-ionone determined as follows: […]

Data set [3] in a line: Experiment B: ozone chamber exposure at 100 ppb over time, headspace SPME-GCMS. As to conditions: 100 ppb ozone. As for the experimental part:
A β-ionone solution (10 % w/w in ethanol) was applied to a surface (20 microlitres) and was allowed to dry for one hour in a fume cupboard. The surface was then placed at the base of the ozone chamber. The ozone generator plug-in was turned on for the required time at regular intervals to achieve the desired ozone concentration inside the chamber (either 250 ppb or 350 ppb). After exposure of a surface to ozone for the desired time of 1 hour the surface was removed from the chamber and placed in a capped PVC container. The surface was left in the PVC container for 10 min and then an additional 20 min with an SPME fibre exposed to the head-space environment of the container. The headspace was measured by SPME-GCMS and the ratios of β-cyclocitral to β-ionone determined as follows:
This experiment was run like Experiment A, except that the ozone level used was 100 ppb and after 1,2,3,4 and 5 hours measurements of headspace were made and the ratios of β-cyclocitral / β-ionone were calculated from headspace concentration.

The source of these data is EP3440167B2, “FRAGRANCED COMPOSITIONS AND THEIR USE” (Unilever IP Holdings B.V., priority 2016, dated 2017).

The structures appear in SMILES notation.

As for `CC(=O)/C=C/C1=C(C)CCCC1(C)C` [β-ionone], the “β-cyclocitral detected in the headspace” value in data set [1] (SPME GC-MS of headspace) was “No β-cyclocitral was detected”. For the same compound, the “β-cyclocitral detected on the filter paper” value in data set [1] (ethanol extract of filter paper, GC-MS) was “No β-cyclocitral was detected”. Further, the entries for the “ratio of β-cyclocitral to β-ionone” value in data set [2] (250 ppb ozone) and in data set [2] (350 ppb ozone) were 0.72 and 2.67, respectively. Moreover, the “ratio of β-cyclocitral / β-ionone” value is given as 0.43 in data set [3] (1 hour); 0.95 in data set [3] (2 hour); 1.87 in data set [3] (3 hour); 7.00 in data set [3] (4 hour); 11.00 in data set [3] (5 hour).
